The structures appear in SMILES notation.

The term IC50 denotes the midpoint of a concentration-inhibition curve.

Experiment [1] has as its target EGFR L858R/T790M/C797S (Homo sapiens (Human), UniProt P00533, C797S/L858R/T790M). Nature of the experiment: TR-FRET assay for ERBB kinases. To be noted: geometric mean if measured more than once. The class given is biochemical. In outline: (§1)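 HEPES pH 7.5 buffer with 10 mM MgCl2 and 1 mM DTT; 10 min enzyme–compound pre-incubation. A 10 min room-temperature reaction was initiated by a mix carrying 3 mM ATP, stopped with EDTA, and detected by time-resolved FRET at 340 nm excitation.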
In general terms: In TR-FRET formats the signal depends on donor and acceptor labels being close together.

The target of experiment [2] is EGFR L858R/T790M (Homo sapiens (Human), UniProt P00533, L858R/T790M). The experiment can be described thus: TR-FRET assay for ERBB kinases. To be noted: geometric mean if measured more than once. The class given is biochemical. The essentials: as §1
Sequence of EGFR L858R/T790M (P00533 25-1210 T790M/L858R): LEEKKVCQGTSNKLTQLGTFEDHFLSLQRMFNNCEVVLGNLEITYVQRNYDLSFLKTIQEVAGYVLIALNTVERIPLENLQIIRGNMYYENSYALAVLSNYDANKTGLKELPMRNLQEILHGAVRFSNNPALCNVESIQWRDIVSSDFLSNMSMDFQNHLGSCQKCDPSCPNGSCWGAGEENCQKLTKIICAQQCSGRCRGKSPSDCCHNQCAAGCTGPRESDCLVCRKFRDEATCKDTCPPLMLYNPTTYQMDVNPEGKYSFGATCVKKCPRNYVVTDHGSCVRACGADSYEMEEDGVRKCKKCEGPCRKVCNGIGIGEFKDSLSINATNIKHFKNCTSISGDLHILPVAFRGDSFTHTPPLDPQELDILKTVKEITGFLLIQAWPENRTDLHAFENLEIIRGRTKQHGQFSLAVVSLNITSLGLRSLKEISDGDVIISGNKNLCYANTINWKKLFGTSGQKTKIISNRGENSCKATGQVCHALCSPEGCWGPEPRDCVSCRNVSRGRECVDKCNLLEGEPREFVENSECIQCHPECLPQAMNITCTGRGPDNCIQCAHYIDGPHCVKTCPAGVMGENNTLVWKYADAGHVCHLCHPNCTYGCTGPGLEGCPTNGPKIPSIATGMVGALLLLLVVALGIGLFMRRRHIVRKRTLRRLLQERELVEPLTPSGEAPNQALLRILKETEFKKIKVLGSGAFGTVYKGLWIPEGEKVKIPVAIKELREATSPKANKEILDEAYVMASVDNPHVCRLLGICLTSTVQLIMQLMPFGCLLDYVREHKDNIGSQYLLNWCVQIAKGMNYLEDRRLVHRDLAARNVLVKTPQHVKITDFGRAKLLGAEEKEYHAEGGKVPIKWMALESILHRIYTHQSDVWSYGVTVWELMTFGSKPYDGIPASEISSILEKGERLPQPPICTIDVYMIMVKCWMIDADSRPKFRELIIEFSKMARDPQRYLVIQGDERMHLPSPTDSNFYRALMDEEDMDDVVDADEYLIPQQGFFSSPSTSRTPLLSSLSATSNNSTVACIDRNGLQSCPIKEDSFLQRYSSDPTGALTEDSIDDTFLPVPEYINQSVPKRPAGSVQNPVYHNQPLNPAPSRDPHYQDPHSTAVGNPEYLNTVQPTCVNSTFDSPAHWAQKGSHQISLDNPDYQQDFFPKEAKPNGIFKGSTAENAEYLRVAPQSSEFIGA
The target in experiment [3] is EGFR WT (Homo sapiens (Human), UniProt P00533). The experiment can be described thus: TR-FRET assay for ERBB kinases. Type of experiment: biochemical. To be noted: geometric mean if measured more than once. The essentials: as §1
Sequence of EGFR WT (P00533 25-1210): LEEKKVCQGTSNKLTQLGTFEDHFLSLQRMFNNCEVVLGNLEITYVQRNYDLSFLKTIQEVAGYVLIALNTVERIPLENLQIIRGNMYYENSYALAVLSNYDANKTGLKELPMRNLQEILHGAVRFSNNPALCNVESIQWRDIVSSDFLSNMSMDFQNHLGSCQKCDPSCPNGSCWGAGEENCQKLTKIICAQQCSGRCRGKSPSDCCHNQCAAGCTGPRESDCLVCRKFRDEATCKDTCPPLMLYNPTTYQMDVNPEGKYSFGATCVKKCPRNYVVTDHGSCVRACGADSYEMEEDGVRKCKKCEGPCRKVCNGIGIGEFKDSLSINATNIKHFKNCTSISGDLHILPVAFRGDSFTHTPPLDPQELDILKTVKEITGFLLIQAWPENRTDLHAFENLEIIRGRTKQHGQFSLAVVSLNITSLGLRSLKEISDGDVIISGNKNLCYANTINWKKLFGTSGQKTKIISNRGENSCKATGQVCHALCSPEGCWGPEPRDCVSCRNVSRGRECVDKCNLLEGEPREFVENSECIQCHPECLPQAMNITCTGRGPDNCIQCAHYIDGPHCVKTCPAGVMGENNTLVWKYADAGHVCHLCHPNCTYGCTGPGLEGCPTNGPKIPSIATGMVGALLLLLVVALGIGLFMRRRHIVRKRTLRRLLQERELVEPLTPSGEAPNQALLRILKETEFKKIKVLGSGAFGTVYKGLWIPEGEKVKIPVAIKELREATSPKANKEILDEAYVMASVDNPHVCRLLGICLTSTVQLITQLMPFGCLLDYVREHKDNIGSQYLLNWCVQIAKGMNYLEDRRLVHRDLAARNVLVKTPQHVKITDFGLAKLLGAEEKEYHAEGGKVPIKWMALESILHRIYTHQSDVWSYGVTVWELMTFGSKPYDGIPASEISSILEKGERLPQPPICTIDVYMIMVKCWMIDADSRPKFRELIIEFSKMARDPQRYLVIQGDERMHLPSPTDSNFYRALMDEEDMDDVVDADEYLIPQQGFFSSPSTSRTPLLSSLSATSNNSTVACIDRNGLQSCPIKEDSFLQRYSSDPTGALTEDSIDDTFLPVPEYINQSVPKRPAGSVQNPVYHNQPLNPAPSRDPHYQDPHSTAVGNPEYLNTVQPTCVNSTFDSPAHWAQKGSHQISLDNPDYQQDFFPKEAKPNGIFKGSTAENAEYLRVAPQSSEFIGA
The target of experiment [4] is EGFR Exon 20 ASV (HeLa*) (Homo sapiens (Human), UniProt P00533, DUP767-769). The experiment can be described thus: EGFR protein degradation assay (Western blot). The class given is cell-based. Particulars: 72 hours, 300 nM to 10 nM.
Experiment [5] has as its target EGFR-wt (MDA-MB-231 or MCF7 or A549 or OVCAR8) (Homo sapiens (Human), UniProt P00533). The experiment can be described thus: EGFR protein degradation assay (Western blot). Particulars: 72 hours, 300 nM to 10 nM. The class given is cell-based. In outline:
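EGFR degradation was assessed by Western blot. Cells expressing the appropriate EGFR were seeded in 6-well plates (300,000 cells per well) and adhered overnight. Media was removed, cells were washed with cold phosphate-buffered saline, scraped into 400 μl Cell Signaling lysis buffer plus protease inhibitor cocktail, and spun once at 10 000 rpm for 10 minutes. After BCA quantification, loading buffer and reducing agent were added. Gels loaded with 10 μg protein ran at 165V for 2 hours, and bands were visualized by chemiluminescence.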
On the technique in general: In western blotting, separated proteins are transferred to a membrane and probed.

In experiment [6] the target is EGFR Exon20NPG (Homo sapiens (Human), UniProt P00533, INS770NPG). Nature of the experiment: TR-FRET assay for ERBB kinases. The class given is biochemical. To be noted: geometric mean if measured more than once. The essentials:
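Phosphorylation of fluorescein-labeled poly-GluTyr read as TR-FRET using Tb-pY20 antibody after EDTA stop, with 340 nm excitation. Kinase reaction ran 10 min at room temperature following 10 min compound pre-incubation; substrate mix held 3 mM ATP and 30 µM peptide before addition. Buffer was HEPES pH 7.5.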

Experiment [7] addresses EGFR L858R/T790M/C797S triple mutant (H520*) (Homo sapiens (Human), UniProt P00533, C797S/L858R/T790M). The experiment can be described thus: EGFR protein degradation assay (Western blot). Particulars: 72 hours, 300 nM to 10 nM. Type of experiment: cell-based. In outline:
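EGFR loss in the triple-mutant line measured by immunoblot: clarified lysates normalised by BCA, run on 4-12% Bis-Tris gels, blotted to PVDF, probed with HRP anti-rabbit secondary. Before lysis, cells were dosed from 1, 0.3, 0.1, 0.03 and 0.01 mM DMSO stocks (not final concentrations) after overnight culture at 37° C.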

Experiment [8] deals with EGFR L858R/T790M double mutant (H1975) (Homo sapiens (Human), UniProt P00533, L858R/T790M). Nature of the experiment: EGFR protein degradation assay (Western blot). Type of experiment: cell-based. Particulars: 72 hours, 300 nM to 10 nM. The essentials:
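EGFR protein levels were measured by immunoblotting. Lysate protein was quantified by BCA, and 10 μg per sample was separated by SDS/PAGE at 165V for 2 hours and transferred to PVDF. Membranes were blocked in TBS-T with 5% milk for 1 hour, probed overnight at 4° C with EGFR and tubulin antibodies, then secondary antibody for 1 hour, and detected by ECL on a Chemidoc.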

Sequence of EGFR-wt (MDA-MB-231 or MCF7 or A549 or OVCAR8) (P00533 25-1210): as above
Sequence of EGFR Exon20NPG (P00533 other isoform, or with tags, fused parts or gaps del 1-694/ins NPG behind 770 limits assumed): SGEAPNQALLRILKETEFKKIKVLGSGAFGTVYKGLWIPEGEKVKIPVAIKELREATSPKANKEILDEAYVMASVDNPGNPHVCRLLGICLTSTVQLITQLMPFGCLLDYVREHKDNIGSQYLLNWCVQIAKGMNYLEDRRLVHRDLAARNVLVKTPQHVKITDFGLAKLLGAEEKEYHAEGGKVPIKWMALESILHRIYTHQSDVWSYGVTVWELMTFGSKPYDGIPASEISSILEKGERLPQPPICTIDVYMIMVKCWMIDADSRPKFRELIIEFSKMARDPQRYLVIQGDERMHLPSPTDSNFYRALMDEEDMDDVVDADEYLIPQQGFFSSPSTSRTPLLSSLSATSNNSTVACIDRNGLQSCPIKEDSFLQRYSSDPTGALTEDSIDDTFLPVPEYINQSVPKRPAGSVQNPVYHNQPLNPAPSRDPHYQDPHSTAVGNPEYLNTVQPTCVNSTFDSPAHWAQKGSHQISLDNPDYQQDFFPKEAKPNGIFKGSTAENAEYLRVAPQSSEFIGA

For the molecule `Cc1ncsc1-c1ccc(CNC(=O)[C@@H]2C[C@@H](O)CN2C(=O)[C@H](C(C)C)N2Cc3ccccc3C2=O)c(OCCOCCOCCN2CCN(Cc3ccc(-c4cc5c(NCc6ccccc6Cl)ncnc5[nH]4)cc3)CC2)c1` [Example 108, (2S,4R)—N-(2-(2-(2-(2-(4-(4-(4-((2-Chlorobenzyl)amino)-7H-pyrrolo[2,3-d]pyrimidin-6-yl)benzyl)piperazin-1-yl)ethoxy)ethoxy)ethoxy)-4-(4-methylthiazol-5-yl)benzyl)-4-hydroxy-1-((S)-3-methyl-2-(1-oxoisoindolin-2-yl)butanoyl)pyrrolidine-2-carboxamide], the IC50 in experiment [1] was 7800 nM; in experiment [2], 10000 nM; in experiment [3], 770 nM; in experiment [6], 980 nM. Besides, the “EGFR protein remaining, EGFR Exon 20 ASV” value in experiment [4] is given as “C (>80% EGFR protein remaining after 72 hours of incubation with the test compound at a concentration of 300 nM)”. Further, the “EGFR protein remaining, EGFR-wt” value in experiment [5] is reported as “C (>80% EGFR protein remaining after 72 hours of incubation with the test compound at a concentration of 300 nM)”.

For `Cc1ncsc1-c1ccc(CNC(=O)[C@@H]2C[C@@H](O)CN2C(=O)[C@@H](NC(=O)CO[C@H]2C[C@H](Oc3ccc(N4CCN(CCOCc5nc6cnc(Nc7ccnc(-c8cnn(S(=O)(=O)C9CC9)c8)n7)cc6n5C(C)C)CC4)cc3)C2)C(C)(C)C)cc1` [compound 304], the figures for the IC50 in experiment [1], in experiment [2] and in experiment [3] were 17 nM, 92 nM and over 30000 nM, respectively. In experiment [5], the “EGFR protein remaining, EGFR-wt” value is “C (>80% EGFR protein remaining after 72 hours of incubation with the test compound at a concentration of 300 nM)”. The “EGFR protein remaining, EGFR L858R/T790M/C797S triple mutant” value in experiment [7] is “A (≤50% EGFR protein remaining after 72 hours of incubation with the test compound at a concentration between 300 nM and 10 nM)”.

`Cc1ncsc1-c1ccc(CNC(=O)[C@@H]2C[C@@H](O)CN2C(=O)[C@H](C(C)C)N2Cc3ccccc3C2=O)c(OCCOCCOCCOCCOCCN2CCN(Cc3ccc(-c4cc5c(NCc6ccccc6Cl)ncnc5[nH]4)cc3)CC2)c1` [compound 110]: the IC50 was determined as 12000 nM in experiment [1], 8600 nM in experiment [2], 770 nM in experiment [3] and 1800 nM in experiment [6]. In addition, in experiment [4], the “EGFR protein remaining, EGFR Exon 20 ASV” value is “C (>80% EGFR protein remaining after 72 hours of incubation with the test compound at a concentration of 300 nM)”. For the same molecule, the “EGFR protein remaining, EGFR-wt” value in experiment [5] is “C (>80% EGFR protein remaining after 72 hours of incubation with the test compound at a concentration of 300 nM)”.

Consider `Cc1ncsc1-c1ccc([C@H](C)NC(=O)[C@H]2C[C@H](O)CN2C(=O)[C@@H](NC(=O)COCCOCCOCCOCCOCCOCC#Cc2cccc3c2C(=O)N([C@@H](C(=O)Nc2nccs2)c2cc(F)ccc2O)C3)C(C)(C)C)cc1` [compound 275], for which the IC50 stood at 69 nM in experiment [1], 880 nM in experiment [2], 660 nM in experiment [3] and 9100 nM in experiment [6]. Besides, the “EGFR protein remaining, EGFR L858R/T790M double mutant” value in experiment [8] is recorded as “C (>80% EGFR protein remaining after 72 hours of incubation with the test compound at a concentration of 300 nM)”. In addition, the “EGFR protein remaining, EGFR-wt” value in experiment [5] is on record as “C (>80% EGFR protein remaining after 72 hours of incubation with the test compound at a concentration of 300 nM)”. The “EGFR protein remaining, EGFR L858R/T790M/C797S triple mutant” value in experiment [7] was “B (≤80% and >50% EGFR protein remaining after 72 hours of incubation with the test compound at a concentration between 300 nM and 10 nM)”.

In the case of `O=C1CCC(N2C(=O)c3ccc(OCCOCCOCCOCCOCCN4CCN(Cc5ccc(C6Cc7c(NCc8ccccc8Cl)ncnc7N6)cc5)CC4)cc3C2=O)C(=O)N1` (centres unmarked) [compound 104], the IC50 in experiment [1] is 8200 nM; in experiment [2], 12000 nM; in experiment [3], 590 nM; in experiment [6], 510 nM. Moreover, in experiment [4], the “EGFR protein remaining, EGFR Exon 20 ASV” value is “C (>80% EGFR protein remaining after 72 hours of incubation with the test compound at a concentration of 300 nM)”. For the same molecule, in experiment [5], the “EGFR protein remaining, EGFR-wt” value is given as “C (>80% EGFR protein remaining after 72 hours of incubation with the test compound at a concentration of 300 nM)”.

Regarding `Cc1ncsc1-c1ccc(CNC(=O)[C@@H]2C[C@@H](O)CN2C(=O)[C@H](C(C)C)N2Cc3ccccc3C2=O)c(OCCN2CCN(Cc3ccc(-c4cc5c(NCc6ccccc6Cl)ncnc5[nH]4)cc3)CC2)c1` [Example 106, (2S,4R)—N-(2-(2-(4-(4-(4-((2-chlorobenzyl)amino)-7H-pyrrolo[2,3-d]pyrimidin-6-yl)benzyl)piperazin-1-yl)ethoxy)-4-(4-methylthiazol-5-yl)benzyl)-4-hydroxy-1-((S)-3-methyl-2-(1-oxoisoindolin-2-yl)butanoyl)pyrrolidine-2-carboxamide], the IC50 in experiment [1] is 5200 nM; in experiment [2], 4900 nM; in experiment [3], 470 nM; in experiment [6], 1900 nM. For the same molecule, in experiment [4], the “EGFR protein remaining, EGFR Exon 20 ASV” value was “C (>80% EGFR protein remaining after 72 hours of incubation with the test compound at a concentration of 300 nM)”. Further, the “EGFR protein remaining, EGFR-wt” value in experiment [5] is on record as “C (>80% EGFR protein remaining after 72 hours of incubation with the test compound at a concentration of 300 nM)”.

Consider `O=C1CCC(N2C(=O)c3ccc(OCCOCCN4CCN(Cc5ccc(-c6cc7c(NCc8ccccc8Cl)ncnc7[nH]6)cc5)CC4)cc3C2=O)C(=O)N1` (centres unmarked) [Example 102, 5-(2-(2-(4-(4-(4-((2-chlorobenzyl)amino)-7H-pyrrolo[2,3-d]pyrimidin-6-yl)benzyl)piperazin-1-yl)ethoxy)ethoxy)-2-(2,6-dioxopiperidin-3-yl)isoindoline-1,3-dione], for which the “EGFR protein remaining, EGFR Exon 20 ASV” value in experiment [4] is listed as “C (>80% EGFR protein remaining after 72 hours of incubation with the test compound at a concentration of 300 nM)”. Also, the “EGFR protein remaining, EGFR-wt” value in experiment [5] is reported as “C (>80% EGFR protein remaining after 72 hours of incubation with the test compound at a concentration of 300 nM)”.

With `Cc1ncsc1-c1ccc(CNC(=O)[C@@H]2C[C@@H](O)CN2C(=O)[C@H](C(C)C)N2Cc3ccccc3C2=O)c(OCCOCCN2CCN(Cc3ccc(-c4cc5c(NCc6ccccc6Cl)ncnc5[nH]4)cc3)CC2)c1` [compound 107], the IC50 in experiment [1] came out at 6000 nM; in experiment [2] it was 6700 nM; in experiment [3], 140 nM; in experiment [6], 600 nM. Moreover, the “EGFR protein remaining, EGFR Exon 20 ASV” value in experiment [4] is on record as “C (>80% EGFR protein remaining after 72 hours of incubation with the test compound at a concentration of 300 nM)”. The “EGFR protein remaining, EGFR-wt” value in experiment [5] is listed as “C (>80% EGFR protein remaining after 72 hours of incubation with the test compound at a concentration of 300 nM)”.

In the case of `Cc1ncsc1-c1ccc(CNC(=O)[C@@H]2C[C@H](O)CN2C(=O)[C@@H](NC(=O)COCCOCCOCCOc2ccc(-c3ccc4ncnc(Nc5ccc(OCc6cccc(F)c6)c(Cl)c5)c4c3)cc2)C(C)(C)C)cc1` [Example 100, (2S,4S)-1-((S)-2-(tert-Butyl)-14-(4-(4-((3-chloro-4-((3-fluorobenzyl)oxy)phenyl)amino)quinazolin-6-yl)phenoxy)-4-oxo-6,9,12-trioxa-3-azatetradecanoyl)-4-hydroxy-N-(4-(4-methylthiazol-5-yl)benzyl)pyrrolidine-2-carboxamide], in experiment [5], the “EGFR protein remaining, EGFR-wt” value is recorded as “C (>80% EGFR protein remaining after 72 hours of incubation with the test compound at a concentration of 300 nM)”.

On to `Cc1ncsc1-c1ccc(CNC(=O)[C@@H]2C[C@@H](O)CN2C(=O)[C@@H](NC(=O)COCCOCCOCCOc2ccc(-c3cc4c(NCc5ccccc5Cl)ncnc4[nH]3)cc2)C(C)(C)C)cc1` [Example 14, (2S,4R)-1-((S)-2-(tert-butyl)-14-(4-(4-((2-chlorobenzyl)amino)-7H-pyrrolo[2,3-d]pyrimidin-6-yl)phenoxy)-4-oxo-6,9,12-trioxa-3-azatetradecanoyl)-4-hydroxy-N-(4-(4-methylthiazol-5-yl)benzyl)pyrrolidine-2-carboxamide], for which the “EGFR protein remaining, EGFR Exon 20 ASV” value in experiment [4] is “C (>80% EGFR protein remaining after 72 hours of incubation with the test compound at a concentration of 300 nM)”. Moreover, in experiment [5], the “EGFR protein remaining, EGFR-wt” value is reported as “C (>80% EGFR protein remaining after 72 hours of incubation with the test compound at a concentration of 300 nM)”.

(Values after patent US10994015B2, “EGFR proteolysis targeting chimeric molecules and associated methods of use” (Arvinas Operations, Inc., priority 2016, dated 2021).)
